Measured values from ChEMBL document CHEMBL3885881, “DrugMatrix”.

Species: Rattus norvegicus
Assay: DrugMatrix - Regimen: Daily Repeat
Format: toxicity, organism-based, Sprague-Dawley
Set-up: regimen Daily Repeat, gender Male, age 6-8 weeks
Settings: in vivo, po, route oral GAVAGE, […]; for ABSOLUTE BASOPHIL / BASOPHIL / NUCLEATED RED BLOOD CELLS / ABSOLUTE EOSINOPHIL / EOSINOPHIL / HEMOGLOBIN / ABSOLUTE LYMPHOCYTE / ABSOLUTE MONOCYTE / ABSOLUTE SEGMENTED NEUTROPHIL / ERYTHROCYTE COUNT / HEMATOCRIT / LEUKOCYTE COUNT / LYMPHOCYTE / MEAN CORPUSCULAR HEMOGLOBIN / MEAN CORPUSCULAR HEMOGLOBIN CONCENTRATION / MEAN CORPUSCULAR VOLUME / MONOCYTE / NEUTROPHIL / PLATELET COUNT: tissue Blood; for TOTAL BILIRUBIN / ALANINE AMINOTRANSFERASE / ALBUMIN / ALKALINE PHOSPHATASE / ASPARTATE AMINOTRANSFERASE / BLOOD UREA NITROGEN / CARBON DIOXIDE / CHLORIDE / CHOLESTEROL / CREATINE PHOSPHOKINASE / CREATININE / GLUCOSE / LACTATE DEHYDROGENASE / LIPASE / PHOSPHORUS / POTASSIUM / SODIUM / TOTAL PROTEIN / URIC ACID: tissue Plasma
[1] = 0 mg/kg, 72 h, dose level Control, time 3 day
[2] = 0 mg/kg, 120 h, dose level Control, time 5 day
[3] = 3 mg/kg, 72 h, dose level Low, time 3 day
[4] = 3 mg/kg, 120 h, dose level Low, time 5 day
[5] = 9 mg/kg, 72 h, dose level M1, time 3 day

CS(=O)(=O)OCCCCOS(C)(=O)=O [BUSULFAN]
ABSOLUTE BASOPHIL [1]: 0 CELLS/uL
BASOPHIL [1]: 0%
NUCLEATED RED BLOOD CELLS [1]: 0 /100WBC
TOTAL BILIRUBIN [1]: 0.2 mg/dL
ABSOLUTE BASOPHIL [2]: 0 CELLS/uL
ABSOLUTE EOSINOPHIL [2]: 0 CELLS/uL
BASOPHIL [2]: 0%
EOSINOPHIL [2]: 0%
HEMOGLOBIN [2]: 13.5 G/DL
ABSOLUTE BASOPHIL [3]: 0 CELLS/uL
ABSOLUTE EOSINOPHIL [3]: 108.33 CELLS/uL
ABSOLUTE LYMPHOCYTE [3]: 8850.33 CELLS/uL
ABSOLUTE MONOCYTE [3]: 34.33 CELLS/uL
ABSOLUTE SEGMENTED NEUTROPHIL [3]: 773.67 CELLS/uL
BASOPHIL [3]: 0%
EOSINOPHIL [3]: 1%
ERYTHROCYTE COUNT [3]: 4.94 x10E6/uL
HEMATOCRIT [3]: 32%
HEMOGLOBIN [3]: 12.67 G/DL
LEUKOCYTE COUNT [3]: 9.77 x10E3/uL
LYMPHOCYTE [3]: 91%
MEAN CORPUSCULAR HEMOGLOBIN [3]: 25.67 pg
MEAN CORPUSCULAR HEMOGLOBIN CONCENTRATION [3]: 39.6 G/DL
MEAN CORPUSCULAR VOLUME [3]: 64.8 fL
MONOCYTE [3]: 0.33%
NEUTROPHIL [3]: 7.67%
NUCLEATED RED BLOOD CELLS [3]: 0 /100WBC
PLATELET COUNT [3]: 940.33 x10E3/uL
ALANINE AMINOTRANSFERASE [3]: 62.33 u/L
ALBUMIN [3]: 3.77 G/DL
ALKALINE PHOSPHATASE [3]: 286.67 u/L
ASPARTATE AMINOTRANSFERASE [3]: 86.67 u/L
BLOOD UREA NITROGEN [3]: 12.33 mg/dL
CARBON DIOXIDE [3]: 33.5 mmol/L
CHLORIDE [3]: 101 MEQ/L
CHOLESTEROL [3]: 62.33 mg/dL
CREATINE PHOSPHOKINASE [3]: 229.33 u/L
CREATININE [3]: 0.12 mg/dL
GLUCOSE [3]: 162.67 mg/dL
LACTATE DEHYDROGENASE [3]: 71.67 u/L
LIPASE [3]: 12 u/L
PHOSPHORUS [3]: 10 mg/dL
POTASSIUM [3]: 5.22 MEQ/L
SODIUM [3]: 144.35 MEQ/L
TOTAL BILIRUBIN [3]: 0.13 mg/dL
TOTAL PROTEIN [3]: 5.37 G/DL
URIC ACID [3]: 0.47 mg/dL
ABSOLUTE BASOPHIL [4]: 0 CELLS/uL
ABSOLUTE EOSINOPHIL [4]: 12.67 CELLS/uL
ABSOLUTE LYMPHOCYTE [4]: 5804 CELLS/uL
ABSOLUTE MONOCYTE [4]: 73.33 CELLS/uL
ABSOLUTE SEGMENTED NEUTROPHIL [4]: 310 CELLS/uL
BASOPHIL [4]: 0%
EOSINOPHIL [4]: 0.33%
ERYTHROCYTE COUNT [4]: 5.4 x10E6/uL
HEMATOCRIT [4]: 33.53%
HEMOGLOBIN [4]: 12.9 G/DL
LEUKOCYTE COUNT [4]: 6.2 x10E3/uL
LYMPHOCYTE [4]: 92.67%
MEAN CORPUSCULAR HEMOGLOBIN [4]: 23.9 pg
MEAN CORPUSCULAR HEMOGLOBIN CONCENTRATION [4]: 38.5 G/DL
MEAN CORPUSCULAR VOLUME [4]: 62.07 fL
MONOCYTE [4]: 1.33%
NEUTROPHIL [4]: 5.67%
NUCLEATED RED BLOOD CELLS [4]: 0 /100WBC
PLATELET COUNT [4]: 1068.67 x10E3/uL
ALANINE AMINOTRANSFERASE [4]: 47.67 u/L
ALBUMIN [4]: 4.13 G/DL
ALKALINE PHOSPHATASE [4]: 363 u/L
ASPARTATE AMINOTRANSFERASE [4]: 87 u/L
BLOOD UREA NITROGEN [4]: 12.33 mg/dL
CARBON DIOXIDE [4]: 28.67 mmol/L
CHLORIDE [4]: 100 MEQ/L
CHOLESTEROL [4]: 62 mg/dL
CREATINE PHOSPHOKINASE [4]: 290.67 u/L
CREATININE [4]: 0.16 mg/dL
GLUCOSE [4]: 165.67 mg/dL
LACTATE DEHYDROGENASE [4]: 77.67 u/L
LIPASE [4]: 13.33 u/L
PHOSPHORUS [4]: 9.3 mg/dL
POTASSIUM [4]: 5.76 MEQ/L
SODIUM [4]: 145.25 MEQ/L
TOTAL BILIRUBIN [4]: 0.17 mg/dL
TOTAL PROTEIN [4]: 6 G/DL
URIC ACID [4]: 0.53 mg/dL
ABSOLUTE BASOPHIL [5]: 0 CELLS/uL
ABSOLUTE EOSINOPHIL [5]: 0 CELLS/uL
ABSOLUTE LYMPHOCYTE [5]: 12304.67 CELLS/uL
ABSOLUTE MONOCYTE [5]: 88.33 CELLS/uL
ABSOLUTE SEGMENTED NEUTROPHIL [5]: 840.33 CELLS/uL
BASOPHIL [5]: 0%
EOSINOPHIL [5]: 0%
ERYTHROCYTE COUNT [5]: 5.46 x10E6/uL
HEMATOCRIT [5]: 33.63%
HEMOGLOBIN [5]: 13.23 G/DL
LEUKOCYTE COUNT [5]: 13.23 x10E3/uL
LYMPHOCYTE [5]: 92.67%
MEAN CORPUSCULAR HEMOGLOBIN [5]: 24.27 pg
MEAN CORPUSCULAR HEMOGLOBIN CONCENTRATION [5]: 39.37 G/DL
MEAN CORPUSCULAR VOLUME [5]: 61.57 fL
MONOCYTE [5]: 0.67%
NEUTROPHIL [5]: 6.67%
NUCLEATED RED BLOOD CELLS [5]: 0 /100WBC
PLATELET COUNT [5]: 1234.33 x10E3/uL
ALANINE AMINOTRANSFERASE [5]: 56.33 u/L
ALBUMIN [5]: 4.03 G/DL
ALKALINE PHOSPHATASE [5]: 362 u/L
ASPARTATE AMINOTRANSFERASE [5]: 76 u/L
BLOOD UREA NITROGEN [5]: 13 mg/dL
CARBON DIOXIDE [5]: 29.33 mmol/L
CHLORIDE [5]: 102.33 MEQ/L
CHOLESTEROL [5]: 77 mg/dL
CREATINE PHOSPHOKINASE [5]: 320.33 u/L
CREATININE [5]: 0.19 mg/dL
GLUCOSE [5]: 162.67 mg/dL
LACTATE DEHYDROGENASE [5]: 161.33 u/L
LIPASE [5]: 12 u/L
PHOSPHORUS [5]: 10.37 mg/dL
